Laboratory results taken from US20230227484A1, “PYRIMIDINE COMPOUND AS AXL INHIBITOR” (NANJING CHIA TAI TIANQING PHARMACEUTICAL CO., LTD., priority 2020, published 2023).

Columns and labels:
[1] = system: MV-4-11 (human myeloid monocytic leukemia cell line); assay: Proliferation inhibition activity of compounds to MV-4-11 cells (CellTiter-Glo); format: cell-based; conditions: MV4-11 cells, 72 h dosing
Outline: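 MV-4-11 cells, plated 24 h earlier, were exposed 72 h to compounds in 10-point 3-fold dilutions (0.5% DMSO final). Viability read by CellTiter-Glo luminescence; inhibition normalized to blank and untreated controls, IC50 from variable-slope log(inhibitor)-response fit.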

AXL kinase = biological target: T1, AXL kinase (Homo sapiens, UniProt P30530); assay: Inhibitory activity of compound against AXL kinase (HTRF KinEASE); format: biochemical; conditions: AXL enzyme (Carna, 08-107), ATP 15 μM; "<" means below detection limit of the test
T1 construct: purchased Carna 08-107
T1 sequence (P30530 473-894 limits assumed): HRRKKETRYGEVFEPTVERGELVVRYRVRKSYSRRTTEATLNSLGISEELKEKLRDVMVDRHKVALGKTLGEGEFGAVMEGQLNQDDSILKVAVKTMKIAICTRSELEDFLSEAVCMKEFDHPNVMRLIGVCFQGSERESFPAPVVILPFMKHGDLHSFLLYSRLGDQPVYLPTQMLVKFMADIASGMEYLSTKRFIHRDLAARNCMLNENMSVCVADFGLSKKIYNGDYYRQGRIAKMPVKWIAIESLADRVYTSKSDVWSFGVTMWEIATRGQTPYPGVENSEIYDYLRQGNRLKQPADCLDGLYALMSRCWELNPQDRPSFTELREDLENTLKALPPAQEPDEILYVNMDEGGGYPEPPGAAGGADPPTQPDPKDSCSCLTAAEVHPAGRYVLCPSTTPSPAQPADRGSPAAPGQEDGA
Outline: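 AXL enzyme (final 0.016 ng/uL) was preincubated with compound (8 concentrations from 1 μM, ½ log steps) for 15 min at room temperature, then reacted with TK Substrate 3-biotin (final 1) and ATP (final 15 μM) for 45 min at 25° C. Phosphorylation was read by HTRF (TK antibody-cryptate, streptavidin-XL665, 1 h); IC50 from variable-slope dose-response fit.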

| Structure (SMILES) | IC50 [1] [nM] | IC50 (AXL kinase) [nM] |
| --- | --- | --- |
| COCc1ccc(Nc2nc(Nc3ccc4c(c3)CC[C@@H](N3CCCC3)CC4)ncc2Cl)c(P(C)(C)=O)c1 [Example 115, (S)-(2-((5-chloro-2-((7-(pyrrolidin-1-yl)-6,7,8,9-tetrahydro-5H-benzo[7]annulen-2-yl)amino)pyrimidin-4-yl)amino)-5-(methoxymethyl)phenyl)dimethylphosphine oxide] | 6.97 | 4.89 |
| CP(C)(=O)c1ccccc1Nc1nc(Nc2ccc3c(c2)CC[C@@H](N2CCCC2)CC3)ncc1Cl [Example 10, (S)-(2-((5-chloro-2-((7-(pyrrolidin-1-yl)-6,7,8,9-tetrahydro-5H-benzo[7]annulen-2-yl)amino)pyrimidin-4-yl)amino)phenyl)dimethyl phosphine oxide] | 5.49 | 2.35 |
| Cc1ccc(Nc2nc(Nc3ccc4c(c3)CC[C@@H](N3CCCC3)CC4)ncc2Cl)c(P(C)(C)=O)c1 [Example 53, (S)-(2-((5-chloro-2-((7-(pyrrolidin-1-yl)-6,7,8,9-tetrahydro-5H-benzo[7]annulen-2-yl)amino)pyrimidin-4-yl)amino)-5-methylphenyl) dimethyl phosphine oxide] | 6.61 | 1.86 |

Now those with a lower IC50 [1], led by results:

| IC50 [1] [nM] | IC50 (AXL kinase) [nM] | Structure (SMILES) |
| --- | --- | --- |
| 5.24 | 1.72 | CP(C)(=O)c1c(Nc2nc(Nc3ccc4c(c3)CC[C@@H](N3CCCC3)CC4)ncc2Cl)ccc2nccnc12 [Example 47, (S)-(6-((5-chloro-2-((7-(pyrrolidin-1-yl)-6,7,8,9-tetrahydro-5H-benzo[7]annulen-2-yl)amino)pyrimidin-4-yl)amino)quinoxalin-5-yl)dimethyl phosphine oxide] |
| 1.6 | 0.11 | CNC(=O)c1cc(F)ccc1Nc1nc(Nc2ccc3c(c2)CC[C@@H](N2CCCC2)CC3)ncc1Cl [Example 19, (S)-2-((5-chloro-2-((7-(pyrrolidin-1-yl)-6,7,8,9-tetrahydro-5H-benzo[7]annulen-2-yl)amino)pyrimidin-4-yl)amino)-5-fluoro-N-methylhenzamide] |
